# Data from patent publication US5856344A, “Sulfonylamino-substituted benzoylguanidines, a process for their preparation, their use as a medicament or diagnostic aid, and medicament containing them” (Hoechst Aktiengesellschaft, priority 1995, dated 1999).
# pIC50: −log10 of the molar value. Where a name gives a salt, the structure may show the parent alone.
# Molecular target: T1, Na^+ /H^+ exchanger of rabbit erythrocytes (Oryctolagus cuniculus, UniProt P23791)
# T1 construct: endogenous in cells; host or cells: erythrocytes in whole blood of cholesterol-fed White New Zealand rabbits (Ivanovas)
# T1 sequence (P23791 whole entry): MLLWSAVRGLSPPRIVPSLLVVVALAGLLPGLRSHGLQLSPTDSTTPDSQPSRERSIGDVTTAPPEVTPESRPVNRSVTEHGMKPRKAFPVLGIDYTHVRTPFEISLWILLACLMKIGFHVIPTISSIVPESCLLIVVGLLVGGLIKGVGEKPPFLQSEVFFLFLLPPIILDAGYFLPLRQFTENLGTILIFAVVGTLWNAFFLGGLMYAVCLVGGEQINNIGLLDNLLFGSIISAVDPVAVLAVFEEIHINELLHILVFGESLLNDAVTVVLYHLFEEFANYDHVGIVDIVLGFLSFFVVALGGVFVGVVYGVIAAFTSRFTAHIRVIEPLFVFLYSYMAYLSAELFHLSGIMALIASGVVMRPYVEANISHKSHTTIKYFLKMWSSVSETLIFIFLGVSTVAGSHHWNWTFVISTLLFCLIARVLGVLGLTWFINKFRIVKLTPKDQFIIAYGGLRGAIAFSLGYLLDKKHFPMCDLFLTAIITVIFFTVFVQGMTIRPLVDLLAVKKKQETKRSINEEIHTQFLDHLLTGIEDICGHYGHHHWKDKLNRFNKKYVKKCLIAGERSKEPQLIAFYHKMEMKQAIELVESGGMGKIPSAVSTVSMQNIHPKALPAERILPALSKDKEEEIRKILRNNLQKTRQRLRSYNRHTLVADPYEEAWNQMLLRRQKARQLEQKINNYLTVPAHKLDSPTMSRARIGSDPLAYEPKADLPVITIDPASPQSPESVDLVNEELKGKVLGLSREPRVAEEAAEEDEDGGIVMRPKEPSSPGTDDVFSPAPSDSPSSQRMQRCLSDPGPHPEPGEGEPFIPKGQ
# Assay: Inhibition of the Na+/H+ exchanger of rabbit erythrocytes (amiloride-sensitive sodium influx, flame photometry)
# Type: cell-based, rabbit (White New Zealand)
# Settings: hyperosmolar salt/sucrose medium, pH 7.4, 37° C.
# Description: Inhibition of the Na^+ /H^+ exchanger of rabbit erythrocytes White New Zealand rabbits (Ivanovas) received a standard diet containing 2% cholesterol for six weeks in order to activate Na^+ /H^+ exchange and thus to make it possible to determine the Na^+ influx into the erythrocytes via Na^+ /H^+ exchange by flame photometry. The blood was taken from the arteries of the ear and anticoagulated with 25 IU of potassium heparin. Part of each sample was used for duplicate determination of the hematocrit by centrifugation. Aliquots each of 100 μl were used to measure the Na^+ content of the erythrocytes.
# In order to determine the amiloride-sensitive sodium influx, 100 μl of each blood sample were incubated in each case in 5 ml of a hyperosmolar salt/sucrose medium (mmol/l: 140 NaCl, 3 KCl, 150 sucrose, 0.1 ouabain, 20 trishydroxymethylaminomethane) at pH 7.4 and 37° C. The erythrocytes were then washed three times with ice-cold MgCl2 /ouabain solution (mmol/l: 112 MgCl2, 0.1 ouabain) and hemolyzed in 2.0 ml of distilled water. The intracellular sodium content was determined by flame photometry.
# The net Na^+ influx was calculated from the difference between the initial sodium levels and the sodium content of the erythrocytes after incubation. […]
row,pIC50,SMILES
1,6.52,"CC(C)c1ccc(C(=O)N=C(N)N)cc1NS(C)(=O)=O [Example 1, 4-Isopropyl-3-methylsulfonylaminobenzoylguanidine, hydrochloride]"
2,6.13,"CS(=O)(=O)Nc1cc(C(=O)N=C(N)N)ccc1Oc1cccnc1 [Example 2, 3-Methylsulfonylamino-4--(3-pyridyloxy)benzoylguanidine]"
